From ChEMBL document CHEMBL3991601, “The target landscape of clinical kinase drugs” (Science, 2017)
Calls of active or inactive are those of the source. Cut-off read from the data, not from the text of the source, for most assays here: actives have a measured Kd and inactives only a lower limit.

How the values were obtained:
Ephrin type-A receptor 1 = molecular target: T1, Ephrin type-A receptor 1 (Homo sapiens, UniProt P21709)
T1 sequence (P21709 whole entry): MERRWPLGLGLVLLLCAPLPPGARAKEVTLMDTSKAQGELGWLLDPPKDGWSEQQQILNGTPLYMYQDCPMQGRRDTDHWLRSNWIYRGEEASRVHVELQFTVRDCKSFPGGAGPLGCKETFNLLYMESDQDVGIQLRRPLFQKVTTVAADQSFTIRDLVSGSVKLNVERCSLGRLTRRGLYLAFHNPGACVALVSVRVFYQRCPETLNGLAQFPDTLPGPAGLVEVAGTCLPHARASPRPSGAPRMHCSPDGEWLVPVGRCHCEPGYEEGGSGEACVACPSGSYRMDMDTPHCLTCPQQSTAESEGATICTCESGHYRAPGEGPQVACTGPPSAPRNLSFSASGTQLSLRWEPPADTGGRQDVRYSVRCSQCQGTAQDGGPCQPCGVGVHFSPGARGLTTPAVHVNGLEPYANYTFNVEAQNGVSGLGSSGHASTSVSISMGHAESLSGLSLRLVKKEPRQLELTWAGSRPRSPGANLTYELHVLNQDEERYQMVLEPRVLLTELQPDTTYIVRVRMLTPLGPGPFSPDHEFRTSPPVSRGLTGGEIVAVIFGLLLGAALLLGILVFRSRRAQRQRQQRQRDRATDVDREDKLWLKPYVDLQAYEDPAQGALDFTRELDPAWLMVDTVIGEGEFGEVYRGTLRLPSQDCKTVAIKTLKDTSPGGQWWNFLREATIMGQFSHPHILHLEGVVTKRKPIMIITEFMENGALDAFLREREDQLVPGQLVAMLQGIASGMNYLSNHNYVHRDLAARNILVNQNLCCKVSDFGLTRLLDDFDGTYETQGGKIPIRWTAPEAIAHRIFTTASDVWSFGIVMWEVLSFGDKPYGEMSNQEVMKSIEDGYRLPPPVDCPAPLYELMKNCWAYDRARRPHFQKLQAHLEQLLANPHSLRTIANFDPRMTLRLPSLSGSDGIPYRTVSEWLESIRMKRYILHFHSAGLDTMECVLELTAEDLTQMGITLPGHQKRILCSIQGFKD

[1] = molecular target: cAMP-dependent protein kinase catalytic subunit alpha (Homo sapiens, UniProt P17612)
[2] = molecular target: T2, STE20-related kinase adapter protein alpha (Homo sapiens, UniProt Q7RTN6)
T2 sequence (Q7RTN6 whole entry): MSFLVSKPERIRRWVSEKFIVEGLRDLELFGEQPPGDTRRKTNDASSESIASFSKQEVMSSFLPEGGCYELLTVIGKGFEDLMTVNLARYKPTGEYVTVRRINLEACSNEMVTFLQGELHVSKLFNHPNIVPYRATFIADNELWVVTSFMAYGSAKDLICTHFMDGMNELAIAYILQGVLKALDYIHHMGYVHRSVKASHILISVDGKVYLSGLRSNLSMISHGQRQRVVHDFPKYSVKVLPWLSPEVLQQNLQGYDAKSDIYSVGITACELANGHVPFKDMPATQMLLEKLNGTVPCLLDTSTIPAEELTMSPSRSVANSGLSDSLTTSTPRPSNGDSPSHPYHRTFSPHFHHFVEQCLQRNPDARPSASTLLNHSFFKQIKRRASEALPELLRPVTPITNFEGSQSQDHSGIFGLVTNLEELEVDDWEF

[3] = molecular target: T3, Serine/threonine-protein kinase TAO2 (Homo sapiens, UniProt Q9UL54)
T3 sequence (Q9UL54 whole entry): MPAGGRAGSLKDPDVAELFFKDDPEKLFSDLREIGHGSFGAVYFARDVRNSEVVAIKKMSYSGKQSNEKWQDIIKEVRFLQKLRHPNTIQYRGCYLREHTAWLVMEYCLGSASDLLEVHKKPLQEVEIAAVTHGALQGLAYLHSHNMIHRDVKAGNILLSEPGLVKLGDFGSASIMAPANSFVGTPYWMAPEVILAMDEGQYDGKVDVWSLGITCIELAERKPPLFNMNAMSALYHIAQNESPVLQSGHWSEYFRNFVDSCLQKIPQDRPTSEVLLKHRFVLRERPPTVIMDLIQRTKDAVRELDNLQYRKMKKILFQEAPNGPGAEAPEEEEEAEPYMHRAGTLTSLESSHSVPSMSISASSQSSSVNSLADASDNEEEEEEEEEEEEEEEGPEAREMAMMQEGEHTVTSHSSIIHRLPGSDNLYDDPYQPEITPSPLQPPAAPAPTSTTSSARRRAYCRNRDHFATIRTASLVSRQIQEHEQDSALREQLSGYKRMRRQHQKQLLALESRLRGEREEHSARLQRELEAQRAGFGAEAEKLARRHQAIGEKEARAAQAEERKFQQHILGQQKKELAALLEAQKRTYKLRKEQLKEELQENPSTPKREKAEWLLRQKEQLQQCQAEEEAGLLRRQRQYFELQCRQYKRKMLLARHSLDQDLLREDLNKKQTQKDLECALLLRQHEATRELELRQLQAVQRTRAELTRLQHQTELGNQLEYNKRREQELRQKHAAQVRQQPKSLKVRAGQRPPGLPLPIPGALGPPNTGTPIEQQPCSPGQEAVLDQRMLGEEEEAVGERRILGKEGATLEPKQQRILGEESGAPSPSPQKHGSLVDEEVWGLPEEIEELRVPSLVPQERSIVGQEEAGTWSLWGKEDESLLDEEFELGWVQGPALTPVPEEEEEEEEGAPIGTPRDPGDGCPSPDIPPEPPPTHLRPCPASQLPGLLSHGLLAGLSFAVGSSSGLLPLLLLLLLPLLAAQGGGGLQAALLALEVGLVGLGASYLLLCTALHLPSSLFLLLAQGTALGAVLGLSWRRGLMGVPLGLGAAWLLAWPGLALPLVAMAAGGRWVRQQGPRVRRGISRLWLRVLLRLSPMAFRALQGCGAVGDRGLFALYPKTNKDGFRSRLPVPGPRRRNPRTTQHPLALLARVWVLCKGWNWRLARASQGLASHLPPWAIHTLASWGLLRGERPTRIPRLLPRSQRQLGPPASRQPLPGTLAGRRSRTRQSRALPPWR

[4] = molecular target: Protein kinase C delta type (Homo sapiens, UniProt Q05655)
[5] = molecular target: Proto-oncogene tyrosine-protein kinase Src (Homo sapiens, UniProt P12931)
Note: in the data inactive means no Kd found up to 30 µM.

Chain of Protein kinase C delta type (Q05655 whole entry): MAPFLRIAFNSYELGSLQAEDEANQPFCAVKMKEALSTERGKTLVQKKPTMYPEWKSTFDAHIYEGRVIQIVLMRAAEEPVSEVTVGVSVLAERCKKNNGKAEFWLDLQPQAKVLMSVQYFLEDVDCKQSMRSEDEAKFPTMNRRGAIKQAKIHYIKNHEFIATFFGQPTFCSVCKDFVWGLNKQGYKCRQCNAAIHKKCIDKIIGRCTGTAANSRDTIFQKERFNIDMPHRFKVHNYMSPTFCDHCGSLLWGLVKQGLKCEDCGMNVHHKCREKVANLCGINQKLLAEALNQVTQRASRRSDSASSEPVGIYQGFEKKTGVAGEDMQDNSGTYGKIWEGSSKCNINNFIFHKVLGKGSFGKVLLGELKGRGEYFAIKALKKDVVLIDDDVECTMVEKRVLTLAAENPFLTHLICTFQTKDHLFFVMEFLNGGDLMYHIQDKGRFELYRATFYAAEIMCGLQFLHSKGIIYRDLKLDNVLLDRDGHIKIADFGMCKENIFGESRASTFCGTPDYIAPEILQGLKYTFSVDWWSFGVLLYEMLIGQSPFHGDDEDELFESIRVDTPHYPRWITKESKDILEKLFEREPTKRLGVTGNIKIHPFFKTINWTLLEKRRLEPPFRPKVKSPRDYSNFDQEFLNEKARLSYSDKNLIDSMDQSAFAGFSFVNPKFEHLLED
Chain of Proto-oncogene tyrosine-protein kinase Src (P12931 2-536 limits assumed): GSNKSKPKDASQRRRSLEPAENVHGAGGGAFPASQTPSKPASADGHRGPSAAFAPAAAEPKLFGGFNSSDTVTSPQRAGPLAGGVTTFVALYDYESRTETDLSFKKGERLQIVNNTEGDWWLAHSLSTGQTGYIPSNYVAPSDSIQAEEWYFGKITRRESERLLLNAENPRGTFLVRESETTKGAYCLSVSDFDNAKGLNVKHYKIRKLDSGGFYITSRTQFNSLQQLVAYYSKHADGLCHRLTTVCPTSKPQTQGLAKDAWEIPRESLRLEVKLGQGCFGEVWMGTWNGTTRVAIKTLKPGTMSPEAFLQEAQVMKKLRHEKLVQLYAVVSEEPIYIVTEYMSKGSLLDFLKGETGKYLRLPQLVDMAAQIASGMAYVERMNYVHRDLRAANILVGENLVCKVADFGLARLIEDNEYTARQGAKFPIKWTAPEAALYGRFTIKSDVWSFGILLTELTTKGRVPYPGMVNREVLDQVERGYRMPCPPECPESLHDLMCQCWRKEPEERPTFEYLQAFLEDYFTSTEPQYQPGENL

| Kd (Ephrin type-A receptor 1) | Kd [1] | Kd [2] | Kd [3] | Kd [4] | Kd [5] | Structure (SMILES) |
| --- | --- | --- | --- | --- | --- | --- |
| > 30 µM (inactive) | 0.935 µM (active) | > 30 µM (inactive) | > 30 µM (inactive) | 0.974 µM (active) | 2.08 µM (active) | Cc1nc(Nc2n[nH]c3c2CN(C(=O)N[C@H](CN(C)C)c2ccccc2)C3(C)C)c2sccc2n1 [PF-03758309] |
| > 30 µM (inactive) | > 30 µM (inactive) | > 30 µM (inactive) | > 30 µM (inactive) | > 30 µM (inactive) | > 30 µM (inactive) | Cc1cnc(NC(=O)Nc2cc(Br)c(C)cc2OC[C@@H]2CNCCO2)cn1 [RABUSERTIB] |
| > 30 µM (inactive) | > 30 µM (inactive) | > 30 µM (inactive) | > 30 µM (inactive) | > 30 µM (inactive) | > 30 µM (inactive) | CO[C@H]1C[C@@H]2CC[C@@H](C)[C@@](O)(O2)C(=O)C(=O)N2CCCC[C@H]2C(=O)O[C@H]([C@H](C)C[C@@H]2CC[C@@H](OP(C)(C)=O)[C@H](OC)C2)CC(=O)[C@H](C)/C=C(\C)[C@@H](O)[C@@H](OC)C(=O)[C@H](C)C[C@H](C)/C=C/C=C/C=C/1C [RIDAFOROLIMUS] |
| > 30 µM (inactive) | > 30 µM (inactive) | > 30 µM (inactive) | > 30 µM (inactive) | > 30 µM (inactive) | > 30 µM (inactive) | N#CC1(c2ccc(NC(=O)c3cccnc3NCc3ccncc3)cc2)CCCC1 [RIVOCERANIB] |
| > 30 µM (inactive) | 0.013 µM | > 30 µM (inactive) | > 30 µM (inactive) | 0.021 µM (active) | > 30 µM (inactive) | O=c1[nH]ccc2cc(OC3CCNCC3)ccc12 [SAR-407899 FREE BASE] |
| > 30 µM (inactive) | > 30 µM (inactive) | > 30 µM (inactive) | > 30 µM (inactive) | 1.64 µM (active) | > 30 µM (inactive) | Cn1cc(-c2cnn3c(N)c(Br)c([C@@H]4CCCNC4)nc23)cn1 [SCH-900776] |
| > 30 µM (inactive) | > 30 µM (inactive) | > 30 µM (inactive) | > 30 µM (inactive) | > 30 µM (inactive) | > 30 µM (inactive) | CO[C@H]1C[C@@H]2CC[C@@H](C)[C@@](O)(O2)C(=O)C(=O)N2CCCC[C@H]2C(=O)O[C@H]([C@H](C)C[C@@H]2CC[C@@H](O)[C@H](OC)C2)CC(=O)[C@H](C)/C=C(\C)[C@@H](O)[C@@H](OC)C(=O)[C@H](C)C[C@H](C)/C=C/C=C/C=C/1C [SIROLIMUS] |
| > 30 µM (inactive) | > 30 µM (inactive) | > 30 µM (inactive) | > 30 µM (inactive) | > 30 µM (inactive) | 0.092 µM (active) | CCS(=O)(=O)c1cccc(-c2cc(C(=O)NC3CCN(C)CC3)c(C)c3[nH]c4ncc(C)cc4c23)c1 [TAK-901] |
| > 30 µM (inactive) | > 30 µM (inactive) | > 30 µM (inactive) | > 30 µM (inactive) | > 30 µM (inactive) | > 30 µM (inactive) | CO[C@H]1C[C@@H]2CC[C@@H](C)[C@@](O)(O2)C(=O)C(=O)N2CCCC[C@H]2C(=O)O[C@H]([C@H](C)C[C@@H]2CC[C@@H](OC(=O)C(C)(CO)CO)[C@H](OC)C2)CC(=O)[C@H](C)/C=C(\C)[C@@H](O)[C@@H](OC)C(=O)[C@H](C)C[C@H](C)/C=C/C=C/C=C/1C [TEMSIROLIMUS] |
| 0.008 µM (active) | > 30 µM (inactive) | > 30 µM (inactive) | > 30 µM (inactive) | > 30 µM (inactive) | 1.13 µM (active) | COc1cc2c(Nc3ccc(Cl)c(Cl)c3F)ncnc2cc1OC[C@@H]1C[C@@H]2CN(C)C[C@@H]2C1 [TESEVATINIB] |
| > 30 µM (inactive) | > 30 µM (inactive) | > 30 µM (inactive) | > 30 µM (inactive) | > 30 µM (inactive) | > 30 µM (inactive) | O=C(Cc1ccc(-c2ccc(OCCN3CCOCC3)cc2)cn1)NCc1ccccc1 [TIRBANIBULIN] |
| 1.07 µM | > 30 µM (inactive) | > 30 µM (inactive) | > 30 µM (inactive) | > 30 µM (inactive) | > 30 µM (inactive) | C[C@@H](NC(=O)c1ncnc(N)c1Cl)c1ncc(C(=O)Nc2cc(C(F)(F)F)c(Cl)cn2)s1 [TOVORAFENIB] |
